The values below come from US7666901B2, “Analogs of 17-hydroxywortmannin as PI3K inhibitors” (Wyeth, priority 2004, dated 2010).

The subject of test [1] is MDA435 (human breast adenocarcinoma). The experiment in a line: Cell proliferation (MTS) assay, MDA435. Format: cell-based. The settings on record: three days treatment. Put shortly: (§1)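 Cells plated at about 3000 per well in RPMI-1640/10% FBS were dosed with compound one day later. Viability was read by MTS conversion (absorbance 490 nm, 1–2 h) three days after treatment began. Effect is expressed as percent of vehicle-treated growth on the same plate.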

Another test relates to MDA-MB-231 breast cells. The test can be described thus: Tumor cell growth assay, combination with CCI-779, MDA-MB-231. The test is classed as cell-based, human. The settings on record: compound 4 at 0.1 μg/ml. As for the experimental part:
(§2) Human tumor cell are all obtained from ATCC, and are cultured using standard cell culture methods. Cells are plated in 96-well culture plates at 1000 to 3000 cells per well. One day following plating, cells are treated with various doses of PI3K inhibitor Compound 4 or Compound 5 alone or with a low constant dose of MEK inhibitor 2-(2-chloro-4-iodoanilino)-N-(cycloprorylmethoxy-3,4-difluobenzamide) (1 μg/ml) or UO126 (5 μg/ml). UO126 is also known as 1,4-diamino-2,3-dicyano-1,4-bis[2-aminophenylthio]butadiene. In some experiments, cells are treated alone with various doses of the MEK inhibitor (2-(2-chloro-4-iodoanilino)-N-(cycloprorylmethoxy-3,4-difluobenzamide)), or HER2/neu inhibitor HKI-272, or mTOR inhibitor CCI-779, or with a low constant dose of Compound 4 (0.1 μg/ml). […] Three days after drug treatment, viable cell densities are determined by metabolic conversion (by viable cells) of the dye MTS, an established cell proliferation assay. […] The MTS assay results are read in a 96-well plate reader by measuring absorbance at 490 nm. The effect of each treatment is calculated as percent of control growth relative to the vehicle DMSO-treated cells grown in the same culture plate. […]

Test [2] concerns LNCaP (human prostate carcinoma). The test can be described thus: Cell proliferation (MTS) assay, LNCaP. Format: cell-based. The settings on record: three days treatment. Put shortly:
as §1

In test [3] the test system is colon carcinoma, NSCLC, DU145 and MDA231 cell lines. The test can be described thus: Tumor cell growth assay, combination with MEK inhibitors, tumor line panel. The test is classed as cell-based, human. Particulars: HCT116, HT29, SW620, SW480, LS-174T, Caco2, Lovo, A549, H157, DU145, MDA231. How it is done: as §2
Test [4] deals with MDA468 (human breast cancer cell). The test can be described thus: Cell proliferation (MTS) assay, MDA468. Format: cell-based. The settings on record: three days treatment. Put shortly:
as §1

The subject of a further test is HCT116 cells. The test can be described thus: Apoptosis assay (Apo-ONE Caspase-3/7), HCT116. The test is classed as cell-based, human. How it is done:
Cells are plated in a 96-well plate at a density of 3000 cells per well. 24 hr later cells are treated with single agent or combination as indicated. Apoptosis is measured at 24 hr and 48 hr post drug treatment by Apo-ONE Caspase-3/7 assay kit (cat # G7791, Promega Corp.) following the protocol provided by the vendor. Assay mix is added to cells and incubated at room temperature for 3 hours with gentle mixing using a plate shaker. The fluorescence of each well is read using the Victor Wallac Plate Reader. Each experimental plate contains blank wells (without cells) as background fluorescence that is subtracted from all wells to obtain experimental values. Data are expressed as relative fluorescent units (RFLU) or as Apo-ONE units.

Test [5] has as its system non-small cell lung cancer (NSCLC) cell lines. The test can be described thus: Tumor cell growth assay, combination with MEK inhibitor, NSCLC. The test is classed as cell-based, human. As for the experimental part:
as §2

For test [6], the system named is HER2/Neu-overexpressing MDA361-DYT2 breast tumor cells. The test can be described thus: Tumor cell growth assay, HKI-272 and combination, MDA361-DYT2. The test is classed as cell-based, human. Particulars: compound 4 at 0.1 μg/ml; MDA361-DYT2. As for the experimental part: as §2
The subject of test [7] is DU145 prostrate tumor cells. The experiment in a line: Tumor cell growth assay, combination with MEK inhibitor, DU145. The test is classed as cell-based, human. How it is done:
as §2

Test [8] has as its system DU145 (human prostate carcinoma/lymphocytic leukemia). The experiment in a line: Cell proliferation (MTS) assay, DU145. Format: cell-based. Particulars: three days treatment. In short, it runs like this: as §1
Test [9] deals with PTEN-negative breast tumor cell lines. The experiment in a line: Tumor cell growth assay, combination with CCI-779, PTEN-negative breast lines. Particulars: compound 4 at 0.1 μg/ml. Format: cell-based, human. As for the experimental part: as §2
Another test relates to colon tumor cell lines. The test can be described thus: Tumor cell growth assay, combination with CCI-779, colon lines. Format: cell-based, human. Particulars: compound 4 at 0.1 μg/ml. How it is done: as §2
A further test has as its system HCT116 colon tumor cells. The test can be described thus: Tumor cell growth assay, combination with MEK inhibitors, HCT116. Format: cell-based, human. Particulars: MEK inhibitor at low constant dose. As for the experimental part: as §2

The structures appear in SMILES notation.

Turning to `COC[C@H]1OC(=O)/C(=C/N(CCO)C(C)(C)C)C2=C(O)C(=O)C3=C([C@H](OC(C)=O)C[C@@]4(C)C3CC[C@@H]4O)[C@]21C` (stereo partly drawn) [Compound 4, (1E,4S,4aR,5R,6aS,7S)-1-{[tert-butyl(2-hydroxyethyl)amino]methylene}-7,11-dihydroxy-4-(methoxymethyl)-4a,6a-dimethyl-2,10-dioxo-1,2,4,4a,5,6,6a,7,8,9,9a,10-dodecahydroindeno[4,5-h]isochromen-5-yl acetate], the “MDA435 IC50” value in test [1] (Table 1) was determined as 6 µg/mL; in test [1] (Table 2), 3.5 µg/mL. The “growth inhibition in combination with mTOR inhibitor CCI-779” value in the test on MDA-MB-231 breast cells was “synergistically inhibited growth”; in [9], “additive growth inhibition”; in test [9] (listed as compound 4), “synergistically inhibited growth”; with colon tumor cell lines, “synergistically inhibited growth”. In addition, the “LNCaP IC50” value stood at 0.09 µg/mL in [2] (Table 1) and 0.05 µg/mL in [2] (Table 2). Besides, in test [3], the “growth inhibition in combination with MEK inhibitors UO126 and 2-(2-chloro-4-iodoanilino)-N-(cycloprorylmethoxy-3,4-difluobenzamide)” value is given as “broad synergistic growth inhibition”. Further, the “MDA468 IC50” value stood at 0.3 µg/mL in test [4] (Table 1) and 0.51 µg/mL in [4] (Table 2). Besides, the “induction of apoptosis in combination with MEK inhibitor 2-(2-chloro-4-iodoanilino)-N-(cycloprorylmethoxy-3,4-difluobenzamide)” value in the test on HCT116 cells was “synergistic induction of apoptosis”. Moreover, the “growth inhibition in combination with MEK inhibitor 2-(2-chloro-4-iodoanilino)-N-(cycloprorylmethoxy-3,4-difluobenzamide)” value in test [5] and in [7] was “synergistic growth inhibition” in each case. The “growth inhibition in combination with HER2/neu inhibitor HKI-272” value in test [6] is recorded as “synergistically inhibited growth”. For the same compound, the figures for the “DU145 IC50” value in test [8] (Table 1) and in [8] (Table 2) were 1.5 µg/mL and 1 µg/mL, respectively. Further, in the test on HCT116 colon tumor cells, the “growth inhibition in combination with MEK inhibitors” value is “synergistically inhibited growth”.
